Test results published in patent US5061794A, “Cephalosporin derivatives, and antibacterial agents” (priority 1986, dated 1991).
Values after ≈ are worked out from the molar mass of the structure shown. Structures can show the parent of a compound that is named as a salt. Where two headings read alike, the source gives them in different places.

Experiments:
[1] = tested on: E. coli CSH(RE45); experiment: microbe, parasite or virus in culture; assay type: cell-based; conditions: Escherichia coli, 16 h, read-out: Minimum Inhibitory Concentration (MIC), *E. coli CSH(RE45), lactamase-producing strain; 10^6 CFU/ml
In short: (§1)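 First, strains were cultured overnight in Mueller Hinton broth. Next, one loopful went onto drug-containing Mueller Hinton agar (10^6 CFU/ml). Finally, after 37° C. incubation for 16 hours, MIC was determined in μg/ml.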

[2] = tested on: E. coli CSH2 (RK1); experiment: microbe, parasite or virus in culture; assay type: cell-based; conditions: Escherichia coli, 16 h, read-out: Minimum Inhibitory Concentration (MIC), *E. coli CSH2 (RK1), lactamase-producing strain; 10^6 CFU/ml
In short: as §1

[3] = tested on: E. cloacae 963; experiment: in vitro antibacterial activity, agar plate dilution method (MIC); assay type: cell-based; conditions: 10^6 CFU/ml
In short: as §1

[4] = tested on: E. cloacae Nek 39; experiment: as above; assay type: cell-based; conditions: Enterobacter cloacae, NEK39, 16 h, 10^6 CFU/ml
In short: as §1

[5] = tested on: E. coli GN5482; experiment: as above; assay type: cell-based; conditions: Escherichia coli
In short: as §1

[6] = tested on: E. coli NIHJ JC2; experiment: as above; assay type: cell-based; conditions: Escherichia coli
In short: as §1

[7] = tested on: K. oxytoca GN10650; experiment: as above; assay type: cell-based; conditions: Klebsiella oxytoca, 10^6 CFU/ml
In short: as §1

[8] = tested on: K. pneumoniae No. 42; experiment: as above; assay type: cell-based; conditions: Klebsiella pneumoniae, 10^6 CFU/ml
In short: as §1

[9] = tested on: K. pneumoniae PCI-602; experiment: as above; assay type: cell-based; conditions: Klebsiella pneumoniae, PCI602, 16 h, 10^6 CFU/ml
In short: as §1

[10] = tested on: M. morganii GN5407; experiment: as above; assay type: cell-based; conditions: Morganella morganii, 10^6 CFU/ml
In short: as §1

[11] = tested on: P. vulgaris HX-19; experiment: as above; assay type: cell-based; conditions: Proteus vulgaris, HX19, 16 h, P. vulgaris HX-19; 10^6 CFU/ml; read-out: Minimum Inhibitory Concentration (MIC)
In short: as §1

[12] = tested on: P. vulgaris No. 33; experiment: as above; assay type: cell-based; conditions: Proteus vulgaris, 10^6 CFU/ml
In short: as §1

[13] = tested on: S. aureus 209P NIHJ-JC1; experiment: as above; assay type: cell-based; conditions: Staphylococcus aureus, 16 h
In short: as §1

[14] = tested on: S. marcescens IAM 1184; experiment: as above; assay type: cell-based; conditions: Serratia marcescens, IAM1184, 16 h, read-out: Minimum Inhibitory Concentration (MIC)
In short: as §1

[15] = tested on: S. marcescens No. 16-2; experiment: as above; assay type: cell-based; conditions: Serratia marcescens, NO.162, 16 h
In short: as §1

[16] = tested on: Ps. aeruginosa AK 109; experiment: as above; assay type: cell-based, Pseudomonas aeruginosa; conditions: Pseudomonas aeruginosa, AK109, 16 h, Ps. aeruginosa AK 109; 10^6 CFU/ml; read-out: Minimum Inhibitory Concentration (MIC)
In short: as §1

[17] = tested on: Ps. aeruginosa AKR17; experiment: as above; assay type: cell-based, Pseudomonas aeruginosa; conditions: Pseudomonas aeruginosa, 16 h; Ps. aeruginosa AKR17; 10^6 CFU/ml; read-out: Minimum Inhibitory Concentration (MIC)
In short: as §1

[18] = tested on: Ps. aeruginosa IF03445; experiment: as above; assay type: cell-based, Pseudomonas aeruginosa; conditions: Pseudomonas aeruginosa, 16 h; Ps. aeruginosa IF03445; 10^6 CFU/ml; read-out: Minimum Inhibitory Concentration (MIC)
In short: as §1

[19] = tested on: Ps. cepacia 23; experiment: as above; assay type: cell-based, Pseudomonas cepacia; conditions: read-out: Minimum Inhibitory Concentration (MIC)
In short: as §1

[20] = tested on: A. calcoaceticus No. 4; experiment: as above; assay type: cell-based, Acinetobacter calcoaceticus; conditions: Acinetobacter calcoaceticus, NO.4, 16 h, 10^6 CFU/ml
In short: as §1

[21] = Enterobacter cloacae, 16 h, E. cloacae 963, read-out: Minimum Inhibitory Concentration (MIC)
[22] = *E. cloacae Nek 39, lactamase-producing strain, read-out: Minimum Inhibitory Concentration (MIC)
[23] = 16 h, *E. coli GN5482, lactamase-producing strain, 10^6 CFU/ml, read-out: Minimum Inhibitory Concentration (MIC)
[24] = NIHJJC2, E. coli NIHJ JC2, 10^6 CFU/ml, 37° C., 16 hours, read-out: Minimum Inhibitory Concentration (MIC)
[25] = GN10650, 16 h, read-out: Minimum Inhibitory Concentration (MIC), *K. oxytoca GN10650, lactamase-producing strain
[26] = 16 h, *K. pneumoniae No. 42, lactamase-producing strain, read-out: Minimum Inhibitory Concentration (MIC)
[27] = read-out: Minimum Inhibitory Concentration (MIC), K. pneumoniae PCI-602
[28] = 16 h, *M. morganii GN5407, lactamase-producing strain, read-out: Minimum Inhibitory Concentration (MIC)
[29] = 16 h, *P. vulgaris No. 33, lactamase-producing strain, read-out: Minimum Inhibitory Concentration (MIC)
[30] = read-out: Minimum Inhibitory Concentration (MIC)
[31] = S. marcescens IAM 1184, 10^6 CFU/ml
[32] = read-out: Minimum Inhibitory Concentration (MIC), *S. marcescens No. 16-2, lactamase-producing strain, 10^6 CFU/ml
[33] = A. calcoaceticus No. 4, read-out: Minimum Inhibitory Concentration (MIC)
[34] = NIHJJC2, 16 h, read-out: Minimum Inhibitory Concentration (MIC), E. coli NIHJ JC2, 10^6 CFU/ml, 37° C.
[35] = 16 h, *K. oxytoca GN10650, lactamase-producing strain, read-out: Minimum Inhibitory Concentration (MIC)
[36] = K. pneumoniae PCI-602, read-out: Minimum Inhibitory Concentration (MIC)
[37] = GN5407, 16 h, read-out: Minimum Inhibitory Concentration (MIC), *M. morganii GN5407, lactamase-producing strain
[38] = NO.33, 16 h, read-out: Minimum Inhibitory Concentration (MIC), *P. vulgaris No. 33, lactamase-producing strain
[39] = read-out: Minimum Inhibitory Concentration (MIC), S. aureus 209P NIHJ-JC1, 10^6 CFU/ml, 37° C., 16 hours
[40] = *S. marcescens No. 16-2, lactamase-producing strain, 10^6 CFU/ml, read-out: Minimum Inhibitory Concentration (MIC)
[41] = S. aureus 209P NIHJ-JC1, 10^6 CFU/ml, 37° C., 16 hours, read-out: Minimum Inhibitory Concentration (MIC)
[42] = Burkholderia cepacia, 16 h, Ps. cepacia 23, 10^6 CFU/ml
[43] = GN5482, 16 h, read-out: Minimum Inhibitory Concentration (MIC)

Row | SMILES | MIC [1] | MIC [2] | MIC [3, 21] | MIC [4, 22] | MIC [6, 24] | MIC [8, 26] | MIC [9, 27] | MIC [10, 28] | MIC [11] | MIC [12, 29] | MIC [14, 31] | MIC [16] | MIC [17] | MIC [18] | MIC ([19]; Burkholderia cepacia, 23, 16 h) | MIC [20, 33] | MIC [6, 34] | MIC [7, 35] | MIC [9, 36] | MIC [10, 37] | further results
1 | CO/N=C(\C(=O)N[C@@H]1C(=O)N2C(C(=O)O)=C(CSc3nnc(-c4ccccc4)o3)CS[C@H]12)c1csc(N)n1 [compound 1, 7β-[2-(2-aminothiazol-4-yl)-2-methoxyiminoacetamido]-3-(5-phenyl-1,3,4-oxadiazol-2-yl)thiomethyl-3-cephem-4-carboxylic acid trifluoroacetate, reference compound] | 0.39 mg/L | 0.39 mg/L | 1.56 mg/L | 3.12 mg/L | 0.78 mg/L | 1.56 mg/L | 0.0125 mg/L | 0.78 mg/L | < 0.006 mg/L | 0.78 mg/L | 1.56 mg/L | 50 mg/L | > 100 mg/L | > 100 mg/L | 12.5 mg/L | 100 mg/L |  |  |  |  | MIC [5, 23]: 0.78 mg/L; MIC [7, 25]: 6.25 mg/L; MIC [13, 30]: 0.39 mg/L; MIC [15, 32]: 6.25 mg/L
2 | CO/N=C(\C(=O)N[C@@H]1C(=O)N2C(C(=O)O)=C(CSc3nnc(-c4ccc(O)cc4)o3)CS[C@H]12)c1csc(N)n1 [compound 2, reference compound] | 0.39 mg/L (≈ 0.661 µM) | 0.78 mg/L (≈ 1.32 µM) | 1.56 mg/L (≈ 2.65 µM) |  |  | 1.56 mg/L (≈ 2.65 µM) |  |  | < 0.006 mg/L |  |  | 50 mg/L (≈ 84.8 µM) | > 100 mg/L | 100 mg/L (≈ 170 µM) | 12.5 mg/L (≈ 21.2 µM) | 50 mg/L (≈ 84.8 µM) | 0.78 mg/L (≈ 1.32 µM) | 25 mg/L (≈ 42.4 µM) | 0.0125 mg/L (≈ 0.0212 µM) | 0.78 mg/L (≈ 1.32 µM) | MIC ([4]; read-out: Minimum Inhibitory Concentration (MIC), *E. cloacae Nek 39, lactamase-producing strain): 6.25 mg/L (≈ 10.6 µM); MIC ([5]; GN5482, 16 h, read-out: Minimum Inhibitory Concentration (MIC), *E. coli GN5482, lactamase-producing strain, 10^6 CFU/ml): 0.78 mg/L (≈ 1.32 µM); MIC [12, 38]: 0.78 mg/L (≈ 1.32 µM); MIC [13, 39]: 0.78 mg/L (≈ 1.32 µM); MIC [14]: 0.78 mg/L (≈ 1.32 µM); MIC [15, 40]: 25 mg/L (≈ 42.4 µM)
3 | CO/N=C(\C(=O)N[C@@H]1C(=O)N2C(C(=O)O)=C(CSc3nnc(-c4ccccc4)s3)CS[C@H]12)c1csc(N)n1 [compound 5, 7β-[2-(2-aminothiazol-4-yl)-2-methoxyiminoacetamido]-3-(5-phenyl-1,3,4-thiadiazol-2-yl) thiomethyl-3-cephem-4-carboxylic acid trifluoroacetate, reference compound] | 0.2 mg/L | 0.2 mg/L | 0.78 mg/L | 3.12 mg/L | 0.39 mg/L | 0.78 mg/L |  | 0.78 mg/L | 0.0125 mg/L | 0.39 mg/L | 0.78 mg/L | 50 mg/L | > 100 mg/L | 50 mg/L |  | 3.12 mg/L |  | 6.25 mg/L | 0.0125 mg/L |  | MIC [5, 23]: 0.39 mg/L; MIC [13, 41]: 0.39 mg/L; MIC [15, 40]: 3.12 mg/L; MIC [19, 42]: 3.12 mg/L
4 | CC(C)(O/N=C(\C(=O)N[C@@H]1C(=O)N2C(C(=O)O)=C(CSc3nnc(-c4ccccc4)s3)CS[C@H]12)c1csc(N)n1)C(=O)O [compound 6, disodium 7β-[2-(2-aminothiazol-4-yl)-(1-carboxylate-1-methylethoxyimino)acetamido]-3-(5-phenyl-1,3,4-thiadiazol-2-yl) thiomethyl-3-cephem-4carboxylate, reference compound] | 3.12 mg/L | 3.12 mg/L | 6.25 mg/L | 50 mg/L |  | 6.25 mg/L | 0.1 mg/L | 6.25 mg/L | < 0.006 mg/L | 0.39 mg/L | 1.56 mg/L | 100 mg/L | > 100 mg/L | 50 mg/L | 12.5 mg/L | 6.25 mg/L | 3.12 mg/L | 6.25 mg/L |  |  | MIC [5, 43]: 3.12 mg/L; MIC [13, 30]: 3.12 mg/L; MIC [15, 30]: 12.5 mg/L
5 | CO/N=C(\C(=O)N[C@@H]1C(=O)N2C(C(=O)O)=C(CSc3nnc(-c4ccc(O)cc4)s3)CS[C@H]12)c1csc(N)n1 [compound 7, 7β-[2-(2-aminothiazol-4-yl)-2methoxyiminoacetamido]-3-[5-(4-hydroxyphenyl-1,3,4-thiadiazol-2-yl)thiomethyl-3-cephem-4-carboxylic acid trifluoroacetate, reference compound] | 0.2 mg/L | 0.2 mg/L | 1.56 mg/L | 3.12 mg/L | 0.39 mg/L | 1.56 mg/L |  |  | < 0.006 mg/L | 1.56 mg/L | 0.39 mg/L | 25 mg/L | > 100 mg/L | 25 mg/L |  | 1.56 mg/L |  | 3.12 mg/L | < 0.006 mg/L | 0.78 mg/L | MIC [5, 43]: 0.78 mg/L; MIC [13, 41]: 0.39 mg/L; MIC [15, 40]: 3.12 mg/L; MIC [19, 42]: 3.12 mg/L
6 | CC(C)(O/N=C(\C(=O)N[C@@H]1C(=O)N2C(C(=O)O)=C(CSc3nnc(-c4ccc(O)cc4)s3)CS[C@H]12)c1csc(N)n1)C(=O)O [compound 8, disodium 7β-[2-(2-aminothiazol-4-yl)-2-(1-carboxylate-1-methylethoxyimino)acetamido]-3-[5-(4-hydroxyphenyl)-1,3,4-thiadiazol-2-yl)thiomethyl-3-cephem-4-carboxylate, reference compound] | 0.78 mg/L | 0.78 mg/L |  | 25 mg/L |  |  | 0.1 mg/L |  | < 0.006 mg/L |  |  | 25 mg/L | > 100 mg/L | 25 mg/L | 6.25 mg/L |  | 3.12 mg/L |  |  | 1.56 mg/L | MIC ([3]; Enterobacter cloacae, 963, 16 h, read-out: Minimum Inhibitory Concentration (MIC), E. cloacae 963): 6.25 mg/L; MIC [5, 43]: 3.12 mg/L; MIC [7, 25]: 6.25 mg/L; MIC ([8]; NO.42, 16 h, read-out: Minimum Inhibitory Concentration (MIC), *K. pneumoniae No. 42, lactamase-producing strain): 3.12 mg/L; MIC [12, 38]: 0.2 mg/L; MIC [13, 39]: 6.25 mg/L; MIC [14]: 0.78 mg/L; MIC [15, 32]: 6.25 mg/L; MIC ([20]; read-out: Minimum Inhibitory Concentration (MIC), A. calcoaceticus No. 4): 3.12 mg/L
